# Publication PMC7138916 (Pharmacology Research & Perspectives, 2020)
# Read-outs that look alike come from different tables or passages of the source.
# Experiments:
# [1] = system: efflux transporters (eg, P‐gp, BCRP, MRPs); assay: Classification as efflux transporter substrate
# [2] = Rat pharmacokinetic study, IV single bolus; conditions: male, Sprague-Dawley, in vivo, iv
# P‐glycoprotein [3] = conditions: digoxin efflux, human colon, cited from earlier work
# [4] = Bidirectional permeability in parental MDCK cells; format: in vitro ADME, Canine; conditions: dog, MDCK
# [5] = Bidirectional permeability and efflux ratio in Caco‐2 cells; format: in vitro ADME, human; conditions: human, Caco-2
# P‐glycoprotein [6] = conditions: digoxin efflux, rat colon; cited from earlier work
smiles,measurement,setting,value
"C[C@H]1O[C@@H](O[C@H]2[C@@H](O)C[C@H](O[C@H]3[C@@H](O)C[C@H](O[C@H]4CC[C@@]5(C)[C@H](CC[C@@H]6[C@@H]5C[C@@H](O)[C@]5(C)[C@@H](C7=CC(=O)OC7)CC[C@]65O)C4)O[C@@H]3C)O[C@@H]2C)C[C@H](O)[C@@H]1O [Digoxin, digoxin]",Efflux transporter substrate,[1]; Yes/No,Yes
same,Class (based on membrane permeability and ER value),"[1]; parental MDCK, MDR1‐MDCK, and Caco‐2 cell lines",Class II
same,Vd,[2],0.376 ± 0.013 L/kg
same,clearance,[2],9.1 ± 1.3 mL/min/kg
same,half-life,[2],1.3 ± 0.26 h
same,J max (maximal net flux),P‐glycoprotein [3],3.1 ± 0.8 nmol/h/cm^2
same,EC50,P‐glycoprotein [3]; read-out: EC50 (the concentration at which half‐maximal flux was achieved),58.7 ± 15.5 µM
same,"Papp A→B at 2 h, 1 μmol/L",[4],2.22 ± 0.34 ×10⁻⁶ cm/s
same,"Papp B→A at 2 h, 1 μmol/L",[4],2.73 ± 0.45 ×10⁻⁶ cm/s
same,"Papp at 2 h, 1 μmol/L",[4],2.48 ± 0.46 ×10⁻⁶ cm/s
same,"Papp A→B at 2 h, 5 μmol/L",[5],0.477 ± 0.088 ×10⁻⁶ cm/s
same,"Papp B→A at 2 h, 5 μmol/L",[5],23 ± 1.6 ×10⁻⁶ cm/s
same,J max (maximal net flux),P‐glycoprotein [6],2.2 ± 0.3 nmol/h/cm^2
